“And” between values parts separate entries of the source, which are not always exact repeats. Equal entries are not always repeated. Toxic doses and inconclusive results are not listed. Rule as the data show it: active = T/C of 150% or more; inactive = T/C below 125%.
Test system: L1210 leukemia ip in BDF1 mice, survival T/C
Test: NCI In Vivo Anticancer Drug Screen. Data for tumor model L1210 Leukemia (intraperitoneal) in B6D2F1 (BDF1) mice
Details: higher = longer survival
How it was run: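 Tumor cells were implanted, animals were treated, and survival was followed. The result divides the treated measurement by the vehicle-control measurement.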

[1] = endpoint: mean survival time, dose: 100.0 mg/kg/injection, schedule: Q01DX001 (ip), vehicle: carboxymethylcellulose (CMC)
[2] = endpoint: mean survival time, dose: 200.0 mg/kg/injection, schedule: Q01DX001 (ip), vehicle: carboxymethylcellulose (CMC)
[3] = endpoint: mean survival time, dose: 400.0 mg/kg/injection, schedule: Q01DX001 (ip), vehicle: carboxymethylcellulose (CMC)
[4] = endpoint: mean survival time, dose: 100.0 mg/kg/injection, schedule: Q04DX002 (ip), vehicle: Klucel (hydroxypropylcellulose) (HPC)
[5] = endpoint: mean survival time, dose: 200.0 mg/kg/injection, schedule: Q04DX002 (ip), vehicle: Klucel (hydroxypropylcellulose) (HPC)
[6] = endpoint: mean survival time, dose: 400.0 mg/kg/injection, schedule: Q04DX002 (ip), vehicle: Klucel (hydroxypropylcellulose) (HPC)
[7] = endpoint: mean survival time, dose: 25.0 mg/kg/injection, schedule: Q01DX009 (ip), vehicle: saline with Tween-80
[8] = endpoint: mean survival time, dose: 50.0 mg/kg/injection, schedule: Q01DX009 (ip), vehicle: saline with Tween-80
[9] = endpoint: mean survival time, dose: 100.0 mg/kg/injection, schedule: Q04DX003 (ip), vehicle: saline with Tween-80
[10] = endpoint: mean survival time, dose: 200.0 mg/kg/injection, schedule: Q04DX003 (ip), vehicle: saline with Tween-80

Measured: T/C

Oc1c(Cl)cc(Cl)c(Cl)c1CN1CCOCC1
inactive: endpoint: mean survival time, dose: 55.0 mg/kg/injection, schedule: Q01DX Z (ip), vehicle: methylcellulose (MC) 98 % of control | endpoint: mean survival time, dose: 83.0 mg/kg/injection, schedule: Q01DX Z (ip), vehicle: methylcellulose (MC) 116 % of control | endpoint: mean survival time, dose: 125.0 mg/kg/injection, schedule: Q01DX Z (ip), vehicle: methylcellulose (MC) 104 % of control

CCCCCCCCCCCCOC(=O)OC1CCC2(C)C(=CCC3C2CCC2(C)C(C(C)CCCC(C)C)CCC32)C1 (stereo not drawn)
inactive: endpoint: mean survival time, dose: 100.0 mg/kg/injection, schedule: Q01DX008 (sc), vehicle: olive oil, sesame oil, peanut oil 111 % of control | endpoint: mean survival time, dose: 100.0 mg/kg/injection, schedule: Q04DX003 (sc), vehicle: olive oil, sesame oil, peanut oil 109 % of control | endpoint: mean survival time, dose: 200.0 mg/kg/injection, schedule: Q01DX008 (sc), vehicle: olive oil, sesame oil, peanut oil 107 % of control | endpoint: mean survival time, dose: 200.0 mg/kg/injection, schedule: Q04DX003 (sc), vehicle: olive oil, sesame oil, peanut oil 100 % of control | endpoint: mean survival time, dose: 400.0 mg/kg/injection, schedule: Q01DX008 (sc), vehicle: olive oil, sesame oil, peanut oil 107 % of control | endpoint: mean survival time, dose: 400.0 mg/kg/injection, schedule: Q04DX003 (sc), vehicle: olive oil, sesame oil, peanut oil 109 % of control

CO/N=C(/C)C1(O)Cc2c(O)c3c(c(O)c2C(OC2CC(N)C(O)C(C)O2)C1)C(=O)c1c(OC)cccc1C3=O (stereo not drawn)
inactive: endpoint: mean survival time, dose: 1.0 mg/kg/injection, schedule: Q01DX009 (ip), vehicle: water 109 % of control | endpoint: mean survival time, dose: 2.0 mg/kg/injection, schedule: Q01DX009 (ip), vehicle: water 109 % of control | endpoint: mean survival time, dose: 2.0 mg/kg/injection, schedule: Q04DX003 (ip), vehicle: water 101 % of control | endpoint: mean survival time, dose: 3.12 mg/kg/injection, schedule: Q01DX009 (ip), vehicle: saline with Tween-80 111 % of control | endpoint: mean survival time, dose: 4.0 mg/kg/injection, schedule: Q01DX009 (ip), vehicle: water 108 % of control | endpoint: mean survival time, dose: 4.0 mg/kg/injection, schedule: Q04DX003 (ip), vehicle: water 100 % of control | endpoint: mean survival time, dose: 6.25 mg/kg/injection, schedule: Q01DX009 (ip), vehicle: saline with Tween-80 106 % of control | endpoint: mean survival time, dose: 8.0 mg/kg/injection, schedule: Q01DX009 (ip), vehicle: water 106 % of control | endpoint: mean survival time, dose: 8.0 mg/kg/injection, schedule: Q04DX003 (ip), vehicle: water 101 % of control | endpoint: mean survival time, dose: 12.5 mg/kg/injection, schedule: Q01DX009 (ip), vehicle: saline with Tween-80 106 % of control | endpoint: mean survival time, dose: 12.5 mg/kg/injection, schedule: Q04DX003 (ip), vehicle: saline 95 % of control | endpoint: mean survival time, dose: 125.0 micrograms/kg/injection, schedule: Q04DX003 (ip), vehicle: water 100 % of control | endpoint: mean survival time, dose: 250.0 micrograms/kg/injection, schedule: Q04DX003 (ip), vehicle: water 101 % of control | endpoint: mean survival time, dose: 500.0 micrograms/kg/injection, schedule: Q04DX003 (ip), vehicle: water 97 % of control | endpoint: mean survival time, dose: 1000.0 micrograms/kg/injection, schedule: Q04DX003 (ip), vehicle: water 105 % of control | endpoint: mean survival time, dose: 2000.0 micrograms/kg/injection, schedule: Q04DX003 (ip), vehicle: water 102 % of control

O=C1OC(=O)C23CC=CCC12CC=CC3 (stereo not drawn)
inactive: endpoint: mean survival time, dose: 50.0 mg/kg/injection, schedule: Q01DX001 (ip), vehicle: carboxymethylcellulose (CMC) 104 % of control | [1] 113 % of control | [2] 102 % of control | [3] 104 % of control

O=C1CCCCCCCC1O (stereo not drawn)
inactive: endpoint: mean survival time, dose: 50.0 mg/kg/injection, schedule: Q01DX001 (ip), vehicle: saline 96 % of control | endpoint: mean survival time, dose: 100.0 mg/kg/injection, schedule: Q01DX001 (ip), vehicle: saline 98 % of control | endpoint: mean survival time, dose: 200.0 mg/kg/injection, schedule: Q01DX001 (ip), vehicle: saline 102 % of control | endpoint: mean survival time, dose: 400.0 mg/kg/injection, schedule: Q01DX001 (ip), vehicle: saline 104 % of control

CC(=C1C2CCC1C(C(=O)N(C)C)C2C(=O)N(C)C)C(Cl)(Cl)Cl (stereo not drawn)
inactive: [4] 94 % of control | [5] 110 % of control | [6] 90 % of control

Cc1ccc[n+](CC(=O)CCc2ccc(C(=O)C[n+]3cccc(C)c3)cc2)c1
inactive: endpoint: mean survival time, dose: 0.07 mg/kg/injection, schedule: Q04DX003 (ip), vehicle: saline 94 % of control | endpoint: mean survival time, dose: 0.14 mg/kg/injection, schedule: Q04DX003 (ip), vehicle: saline 101 % of control

O=[N+]([O-])c1ccc2c(c1)Cc1cc(Br)ccc1-2
inactive: endpoint: mean survival time, dose: 100.0 mg/kg/injection, schedule: Q01DX009 (ip), vehicle: Klucel (hydroxypropylcellulose) (HPC) 106 % of control | endpoint: mean survival time, dose: 100.0 mg/kg/injection, schedule: Q04DX003 (ip), vehicle: Klucel (hydroxypropylcellulose) (HPC) 92 % of control | endpoint: mean survival time, dose: 200.0 mg/kg/injection, schedule: Q01DX009 (ip), vehicle: Klucel (hydroxypropylcellulose) (HPC) 95 % of control | endpoint: mean survival time, dose: 200.0 mg/kg/injection, schedule: Q04DX003 (ip), vehicle: Klucel (hydroxypropylcellulose) (HPC) 91 % of control | endpoint: mean survival time, dose: 400.0 mg/kg/injection, schedule: Q01DX009 (ip), vehicle: Klucel (hydroxypropylcellulose) (HPC) 98 % of control | endpoint: mean survival time, dose: 400.0 mg/kg/injection, schedule: Q04DX003 (ip), vehicle: Klucel (hydroxypropylcellulose) (HPC) 102 % of control

O=C(O)C1CC=CCC1C(=O)Nc1cccc(O)c1 (stereo not drawn)
inactive: [4] 99 % of control | [5] 105 % of control | [6] 99 % of control

CSc1ncnc2[nH]ncc12
inactive: [7] 108 % of control | endpoint: mean survival time, dose: 25.0 mg/kg/injection, schedule: Q04DX003 (ip), vehicle: saline with Tween-80 105 % of control | [8] 102 % of control | endpoint: mean survival time, dose: 50.0 mg/kg/injection, schedule: Q04DX003 (ip), vehicle: saline with Tween-80 103 % of control | [9] 96 % of control and 106 % of control

CC12CC3CC(C)(C1)CC(CN=C(N)CCl)(C3)C2
inactive: endpoint: mean survival time, dose: 6.25 mg/kg/injection, schedule: Q01DX009 (ip), vehicle: Klucel (hydroxypropylcellulose) (HPC) 106 % of control | endpoint: mean survival time, dose: 12.5 mg/kg/injection, schedule: Q01DX009 (ip), vehicle: Klucel (hydroxypropylcellulose) (HPC) 100 % of control | endpoint: mean survival time, dose: 12.5 mg/kg/injection, schedule: Q04DX002 (ip), vehicle: Klucel (hydroxypropylcellulose) (HPC) 96 % of control | endpoint: mean survival time, dose: 25.0 mg/kg/injection, schedule: Q04DX002 (ip), vehicle: Klucel (hydroxypropylcellulose) (HPC) 96 % of control

Cc1cccn2c(=O)c(/C=N\NC(N)=S)c(Cl)nc12
inactive: [1] 105 % of control | [2] 96 % of control | [3] 94 % of control

COc1cc(C=Nc2ccc3c(c2)OCO3)ccc1OC(=O)c1ccccc1
inactive: endpoint: mean survival time, dose: 100.0 mg/kg/injection, schedule: Q04DX002 (ip), vehicle: saline with Tween-80 96 % of control | endpoint: mean survival time, dose: 200.0 mg/kg/injection, schedule: Q04DX002 (ip), vehicle: saline with Tween-80 100 % of control | endpoint: mean survival time, dose: 400.0 mg/kg/injection, schedule: Q04DX002 (ip), vehicle: saline with Tween-80 93 % of control

Cc1ccc(S(=O)(=O)Nc2ccc(C(=O)O)c(Cl)c2)cc1
inactive: [9] 108 % of control | [10] 92 % of control | endpoint: mean survival time, dose: 400.0 mg/kg/injection, schedule: Q04DX003 (ip), vehicle: saline with Tween-80 104 % of control

CC(=O)Nc1nc(Cl)c([N+](=O)[O-])c(SCc2ccccc2)n1
inactive: [7] 90 % of control | [8] 93 % of control and 97 % of control | endpoint: mean survival time, dose: 100.0 mg/kg/injection, schedule: Q01DX009 (ip), vehicle: saline with Tween-80 101 % of control and 104 % of control | [9] 87 % of control | [10] 98 % of control

CNCC(=O)NC(CO)C(=O)NC1C(C(N)=O)OC(n2ccc(N)nc2=O)C(O)C1O (stereo not drawn)
inactive: endpoint: median survival time, dose: 0.75 mg/kg/injection, schedule: Q04DX003 (ip), vehicle: saline 96 % of control | endpoint: median survival time, dose: 1.5 mg/kg/injection, schedule: Q04DX003 (ip), vehicle: saline 101 % of control | endpoint: median survival time, dose: 3.0 mg/kg/injection, schedule: Q04DX003 (ip), vehicle: saline 94 % of control
